According to patent US12404279B2, “Deubiquitinase inhibitors and methods of use thereof” (Molecure S.A., priority 2021, dated 2025):
Structures can show the parent of a compound that is named as a salt. Where two headings read alike, the source gives them in different places.

Biological target: full-length USP7 (Homo sapiens (Human), UniProt Q93009)
Assay: Enzymatic assay to determine IC50 of USP7 inhibitors (Ubiquitin-Rhodamine 110 cleavage)
Assay type: biochemical
Conditions: for inhibition at 1 µM: read-out: percent value of inhibition of USP7 activity; for IC50: 0.5 nM USP7, 0.5 μM Ubiquitin-Rhodamine 110, 45 min at 37° C.
Procedure: For the inhibitors disclosed herein, their potency was measured using the following method.
A 45 μl reaction volume containing full-length USP7 (0.5 nM) in 50 mM HEPES pH 7.5, 150 mM NaCl, 1 mM DTT, 1 mg/ml BSA and 0.05% Tween20 was assembled in wells of 96 well half area black flat bottom plates. Test compounds were first dissolved to 25 mM stocks in DMSO and subsequently introduced to enzyme 15 min after USP7 incubation with DTT at room temperature. The enzymatic reaction was started by adding 0.5 μM Ubiquitin-Rhodamine 110 (final concentration) and allowed to proceed for 45 min at 37° C., 250 RPM shaking before Rhodamine fluorescence (485 nm excitation/520 nm emission) was measured using Tecan Spark M10 plate reader.

[1] = at 1 μM of the test compound, given where IC50 not determined yet

Chain of full-length USP7 (Q93009 whole entry): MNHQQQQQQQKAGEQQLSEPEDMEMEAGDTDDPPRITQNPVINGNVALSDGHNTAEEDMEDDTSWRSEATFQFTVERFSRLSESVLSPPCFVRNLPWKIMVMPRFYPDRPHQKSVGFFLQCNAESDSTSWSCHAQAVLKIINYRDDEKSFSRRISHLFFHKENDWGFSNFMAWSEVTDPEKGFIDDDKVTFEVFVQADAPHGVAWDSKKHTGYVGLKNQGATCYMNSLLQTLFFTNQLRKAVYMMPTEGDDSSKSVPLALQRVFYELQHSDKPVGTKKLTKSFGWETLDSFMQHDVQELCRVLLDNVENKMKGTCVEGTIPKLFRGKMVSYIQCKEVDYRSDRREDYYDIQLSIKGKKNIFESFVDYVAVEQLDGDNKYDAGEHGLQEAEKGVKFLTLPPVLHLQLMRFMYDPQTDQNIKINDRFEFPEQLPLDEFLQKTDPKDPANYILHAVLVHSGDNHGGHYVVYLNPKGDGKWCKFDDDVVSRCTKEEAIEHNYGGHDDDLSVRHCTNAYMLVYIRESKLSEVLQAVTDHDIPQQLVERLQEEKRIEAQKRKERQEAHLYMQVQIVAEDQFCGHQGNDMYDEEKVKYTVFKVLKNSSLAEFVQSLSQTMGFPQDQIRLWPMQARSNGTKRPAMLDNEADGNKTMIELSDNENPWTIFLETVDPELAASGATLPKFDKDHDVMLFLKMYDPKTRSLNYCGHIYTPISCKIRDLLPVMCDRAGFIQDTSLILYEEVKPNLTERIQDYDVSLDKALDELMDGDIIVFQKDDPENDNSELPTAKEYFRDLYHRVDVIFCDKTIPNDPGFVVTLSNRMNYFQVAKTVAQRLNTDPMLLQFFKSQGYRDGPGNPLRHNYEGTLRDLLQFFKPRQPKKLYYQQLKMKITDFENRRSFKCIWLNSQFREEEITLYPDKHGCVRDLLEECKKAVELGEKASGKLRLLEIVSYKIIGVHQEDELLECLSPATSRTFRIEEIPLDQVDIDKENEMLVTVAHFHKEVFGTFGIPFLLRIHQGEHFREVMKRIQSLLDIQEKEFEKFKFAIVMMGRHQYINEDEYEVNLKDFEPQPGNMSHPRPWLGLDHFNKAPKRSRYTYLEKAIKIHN

`CCc1nc(C(F)(F)F)cc(-c2ccnc3cc(CN4C(=O)C5C(C4=O)C5(C)C)sc23)c1NC(=O)C1CCNCC1` (centres unmarked) [Example 33, N-(4-(2-((6,6-dimethyl-2,4-dioxo-3-azabicyclo[3.1.0]hexan-3-yl)methyl)thieno[3,2-b]pyridin-7-yl)-2-ethyl-6-(trifluoromethyl)pyridin-3-yl)piperidine-4-carboxamide 2,2,2-trifluoroacetate] was tested, and the inhibition at 1 µM was < 20%.
With `Cc1cc(Cl)cc(-c2ccnc3cc(CN4C(=O)C5C(C4=O)C5(C)C)sc23)c1NC(=O)[C@H]1CCNC1` (stereo partly drawn) [Example 34, (3S)—N-(4-chloro-2-(2-((6,6-dimethyl-2,4-dioxo-3-azabicyclo[3.1.0]hexan-3-yl)methyl)thieno[3,2-b]pyridin-7-yl)-6-methylphenyl)pyrrolidine-3-carboxamide 2,2,2-trifluoroacetate] the IC50 was < 0.5 µM.
For `Cc1cc(C(F)(F)F)nc(-c2ccnc3cc(CN4C(=O)C5C(C4=O)C5(C)C)sc23)c1Cn1cncn1` (centres unmarked) [Example 36, 3-((7-(3-((1H-1,2,4-triazol-1-yl)methyl)-4-methyl-6-(trifluoromethyl)pyridin-2-yl)thieno[3,2-b]pyridin-2-yl)methyl)-6,6-dimethyl-3-azabicyclo[3.1.0]hexane-2,4-dione hydrochloride], the inhibition at 1 µM [1] was < 20%.
In the case of `Cc1cc(C(F)(F)F)nc(-c2ccnc3cc(CN4C(=O)C5C(C4=O)C5(C)C)sc23)c1CC1NC(=O)CNC1=O` (centres unmarked) [Example 37, 3-((7-(3-((3,6-dioxopiperazin-2-yl)methyl)-4-methyl-6-(trifluoromethyl)pyridin-2-yl)thieno[3,2-b]pyridin-2-yl)methyl)-6,6-dimethyl-3-azabicyclo[3.1.0]hexane-2,4-dione hydrochloride], the inhibition at 1 µM [1] is reported as < 20%.
For `Cc1cc(C(F)(F)F)nc(-c2ccnc3cc(CN4C(=O)C5C(C4=O)C5(C)C)sc23)c1CN1CCOCC1=O` (centres unmarked) [Example 38, 6,6-dimethyl-3-((7-(4-methyl-3-((3-oxomorpholino)methyl)-6-(trifluoromethyl)pyridin-2-yl)thieno[3,2-b]pyridin-2-yl)methyl)-3-azabicyclo[3.1.0]hexane-2,4-dione hydrochloride], the inhibition at 1 µM [1] was < 20%.
`Cc1cc(C(F)(F)F)nc(-c2ccnc3cc(CN4C(=O)C5C(C4=O)C5(C)C)sc23)c1CN1CCCC1=O` (centres unmarked) [Example 39, 6,6-dimethyl-3-((7-(4-methyl-3-((2-oxopyrrolidin-1-yl)methyl)-6-(trifluoromethyl)pyridin-2-yl)thieno[3,2-b]pyridin-2-yl)methyl)-3-azabicyclo[3.1.0]hexane-2,4-dione dihydrochloride] showed an inhibition at 1 µM [1] of 20 to 49%.
`Cc1cc(C(F)(F)F)nc(-c2ccnc3cc(CN4C(=O)C5C(C4=O)C5(C)C)sc23)c1CN1CCNCC1=O` (centres unmarked) [Example 40, 6,6-dimethyl-3-((7-(4-methyl-3-((2-oxopiperazin-1-yl)methyl)-6-(trifluoromethyl)pyridin-2-yl)thieno[3,2-b]pyridin-2-yl)methyl)-3-azabicyclo[3.1.0]hexane-2,4-dione dihydrochloride] showed an inhibition at 1 µM [1] of 20 to 49%.
`Cc1cc(C(F)(F)F)nc(-c2ccnc3cc(CN4C(=O)C5C(C4=O)C5(C)C)sc23)c1CN1CCN(C)CC1=O` (centres unmarked) [Example 41, 6,6-dimethyl-3-((7-(4-methyl-3-((4-methyl-2-oxopiperazin-1-yl)methyl)-6-(trifluoromethyl)pyridin-2-yl)thieno[3,2-b]pyridin-2-yl)methyl)-3-azabicyclo[3.1.0]hexane-2,4-dione dihydrochloride] was tested, and the inhibition at 1 µM [1] was < 20%.
For `Cc1cc(C#N)nc(-c2ccnc3cc(CN4C(=O)C5C(C4=O)C5(C)C)sc23)c1C(=O)N(C)CCN(C)C` (centres unmarked) [Example 42, 6-cyano-2-(2-((6,6-dimethyl-2,4-dioxo-3-azabicyclo[3.1.0]hexan-3-yl)methyl)thieno[3,2-b]pyridin-7-yl)-N-(2-(dimethylamino)ethyl)-N,4-dimethylnicotinamide], the inhibition at 1 µM [1] was < 20%.
For `Cc1cc(C#N)nc(-c2ccnc3cc(CN4C(=O)C5C(C4=O)C5(C)C)sc23)c1C(=O)N1CC(N(C)C)C1` (centres unmarked) [Example 43, 6-(2-((6,6-dimethyl-2,4-dioxo-3-azabicyclo[3.1.0]hexan-3-yl)methyl)thieno[3,2-b]pyridin-7-yl)-5-(3-(dimethylamino)azetidine-1-carbonyl)-4-methylpicolinonitrile], the inhibition at 1 µM [1] was 50 to 70%.
`Cc1cc(C#N)nc(-c2ccnc3cc(CN4C(=O)C5C(C4=O)C5(C)C)sc23)c1C(=O)N1CC[C@H](N(C)C)C1` (stereo partly drawn) [Example 44, 6-(2-((6,6-dimethyl-2,4-dioxo-3-azabicyclo[3.1.0]hexan-3-yl)methyl)thieno[3,2-b]pyridin-7-yl)-5-((S)-3-(dimethylamino)pyrrolidine-1-carbonyl)-4-methylpicolinonitrile hydrochloride] was tested, and the IC50 was 1 to 10 µM.
With `Cc1ccnc(-c2ccnc3cc(CN4C(=O)C5C(C4=O)C5(C)C)sc23)c1C(=O)N1CCNCC1` (centres unmarked) [Example 45, 6,6-dimethyl-3-((7-(4-methyl-3-(piperazine-1-carbonyl)pyridin-2-yl)thieno[3,2-b]pyridin-2-yl)methyl)-3-azabicyclo[3.1.0]hexane-2,4-dione hydrochloride] the inhibition at 1 µM [1] was < 20%.
For `Cc1ccnc(-c2ccnc3cc(CN4C(=O)C5C(C4=O)C5(C)C)sc23)c1CN1CCNCC1` (centres unmarked) [Example 46, 6,6-dimethyl-3-((7-(4-methyl-3-(piperazin-1-ylmethyl)pyridin-2-yl)thieno[3,2-b]pyridin-2-yl)methyl)-3-azabicyclo[3.1.0]hexane-2,4-dione hydrochloride], the inhibition at 1 µM [1] was < 20%.
With `Cc1ccnc(-c2ccnc3cc(CN4C(=O)C5C(C4=O)C5(C)C)sc23)c1C(=O)N1CCOCC1` (centres unmarked) [Example 48, 6,6-dimethyl-3-((7-(4-methyl-3-(morpholine-4-carbonyl)pyridin-2-yl)thieno[3,2-b]pyridin-2-yl)methyl)-3-azabicyclo[3.1.0]hexane-2,4-dione hydrochloride] the inhibition at 1 µM [1] was < 20%.
With `Cc1ccnc(-c2ccnc3cc(CN4C(=O)C5C(C4=O)C5(C)C)sc23)c1C(=O)N1CCC(F)(F)C1` (centres unmarked) [Example 49, 3-((7-(3-(3,3-difluoropyrrolidine-1-carbonyl)-4-methylpyridin-2-yl)thieno[3,2-b]pyridin-2-yl)methyl)-6,6-dimethyl-3-azabicyclo[3.1.0]hexane-2,4-dione hydrochloride] the inhibition at 1 µM [1] was < 20%.
With `Cc1ccnc(-c2ccnc3cc(CN4C(=O)C5C(C4=O)C5(C)C)sc23)c1C(=O)N1CC(F)(F)C1` (centres unmarked) [Example 50, 3-((7-(3-(3,3-difluoroazetidine-1-carbonyl)-4-methylpyridin-2-yl)thieno[3,2-b]pyridin-2-yl)methyl)-6,6-dimethyl-3-azabicyclo[3.1.0]hexane-2,4-dione hydrochloride] the inhibition at 1 µM [1] was < 20%.
For `Cc1cc(C#N)nc(-c2ccnc3cc(CN4C(=O)C5C(C4=O)C5(C)C)sc23)c1C(=O)N1CC(F)(F)C1` (centres unmarked) [Example 51, 5-(3,3-difluoroazetidine-1-carbonyl)-6-(2-((6,6-dimethyl-2,4-dioxo-3-azabicyclo[3.1.0]hexan-3-yl)methyl)thieno[3,2-b]pyridin-7-yl)-4-methylpicolinonitrile hydrochloride], the IC50 was < 0.5 µM.
For `Cc1cc(C#N)nc(-c2ccnc3cc(CN4C(=O)C5C(C4=O)C5(C)C)sc23)c1C(=O)N1CCN(C)C[C@@H]1C` (stereo partly drawn) [Example 52, 6-(2-((6,6-dimethyl-2,4-dioxo-3-azabicyclo[3.1.0]hexan-3-yl)methyl)thieno[3,2-b]pyridin-7-yl)-5-((S)-2,4-dimethylpiperazine-1-carbonyl)-4-methylpicolinonitrile dihydrochloride], the IC50 was < 0.5 µM.
Work on `Cc1cc(C#N)nc(-c2ccnc3cc(CN4C(=O)C5C(C4=O)C5(C)C)sc23)c1C(=O)N1CCNC(C)(C)C1` (centres unmarked) [Example 53, 6-(2-((6,6-dimethyl-2,4-dioxo-3-azabicyclo[3.1.0]hexan-3-yl)methyl)thieno[3,2-b]pyridin-7-yl)-5-(3,3-dimethylpiperazine-1-carbonyl)-4-methylpicolinonitrile hydrochloride] yielded an IC50 of 1 to 10 µM.
Work on `Cc1cc(C#N)nc(-c2ccnc3cc(CN4C(=O)C5C(C4=O)C5(C)C)sc23)c1C(=O)N1CCNC[C@H]1C` (stereo partly drawn) [Example 54, 6-(2-((6,6-dimethyl-2,4-dioxo-3-azabicyclo[3.1.0]hexan-3-yl)methyl)thieno[3,2-b]pyridin-7-yl)-4-methyl-5-((R)-2-methylpiperazine-1-carbonyl)picolinonitrile hydrochloride] yielded an IC50 of 0.5 to 1 µM.
In the case of `Cc1cc(C#N)nc(-c2ccnc3cc(CN4C(=O)C5C(C4=O)C5(C)C)sc23)c1C(=O)N1CCNCC1` (centres unmarked) [Example 55, 6-(2-((6,6-dimethyl-2,4-dioxo-3-azabicyclo[3.1.0]hexan-3-yl)methyl)thieno[3,2-b]pyridin-7-yl)-4-methyl-5-(piperazine-1-carbonyl)picolinonitrile hydrochloride], the IC50 is reported as < 0.5 µM.
Work on `Cc1cc(C#N)nc(-c2ccnc3cc(CN4C(=O)C5C(C4=O)C5(C)C)sc23)c1C(=O)NC1CNC1` (centres unmarked) [Example 56, N-(azetidin-3-yl)-6-cyano-2-(2-((6,6-dimethyl-2,4-dioxo-3-azabicyclo[3.1.0]hexan-3-yl)methyl)thieno[3,2-b]pyridin-7-yl)-4-methylnicotinamide hydrochloride] yielded an IC50 of 1 to 10 µM.
With `Cc1cc(C#N)nc(-c2ccnc3cc(CN4C(=O)C5C(C4=O)C5(C)C)sc23)c1C(=O)NC1CC(F)(F)C1` (centres unmarked) [Example 57, 6-cyano-N-(3,3-difluorocyclobutyl)-2-(2-((6,6-dimethyl-2,4-dioxo-3-azabicyclo[3.1.0]hexan-3-yl)methyl)thieno[3,2-b]pyridin-7-yl)-4-methylnicotinamide hydrochloride] the inhibition at 1 µM [1] was < 20%.
